Test results taken from patent publication US5567716A, “Trans and cis traumatic acid salts having cicatrizant activity associated to bacteriostatic, antiviral, antibiotic or antifungal activity” (priority 1992, dated 1996).

Experiments:
[1] = system: standard bacterial strains; experiment: Antibacterial activity, diffusion method in agar-germs, all strains (2.a); assay type: cell-based; conditions: versus hexadecyltrimethylammonium bromide and benzyldimethylhexadecylammonium chloride; in words
Description: (§1) In a Tryprone Soy Agar diffusion medium ATCC (American Type Culture Collection) standard bacterial strains are inoculated, preparing a final solution of 10^6 cfu/g (colony forming unities) of the following strains:
(§2) Every plate contains 20 ml of a medium where 2 equidistant wells having a standard diameter are Formed and in each of these wells […] of the above described bacterial solution are inoculated. 2 plates are prepared for every couple of compounds to be tested at different concentrations, and For every strain, and each of these plates is compared with a white (sterile demineralized water inoculum). After the inoculum, the plates are placed in the refrigerator to favour diffusion and temporaneously blocking bacterial growth.
(§3) The compounds hexadecyltrimethylammonium traumatate and benzyldimethylhexadecylammonium traumatare respectively versus hexadecyl trimethylammonium bromide and benzyldimethylhexadecylammonium chloride are solubilized in demineralized water to Form solutions at the concentrations: 0.1; 0.5; and 1%.
(§4) The antibacterial effect is evaluated by measuring bacterial diffusion halo around the well vs white (halo absence).

B.subtilis ATCC 6633 = experiment: Evaluation of bacteriostatic minimal concentration (BMC); assay type: cell-based; conditions: Table 2.b)5; test concentrations given in μg/ml
Description: (§5) 1. Culture Medium: Tryprone Soy Broth (TBS) - Biogenetics
(§6) Microbic standard strains from American Type Culture Collection (ATCC) were used, chosen among aerobic Gram positive and negative as follows:
(§7) The broths culture of the different species are prepared growing the standard strain (kept in Tryptic Soy Agar (TSA) slent at 5° C.) in Tryptone Soy Broth (TSB) for 12 hours at 37° C. 10 ml are then taken up from each culture, centrifugated for 3 times at 3500 PM washing each time the sediment using 10 ml of sterile saline solution. The sediment is resuspended in the saline solution until obtainment of a turbidity corresponding to the Mc Farland standard solution (the suspension title must be […] UFC/ml).
(§8) The compounds, dissolved as stock solution, were added to test tubes containing 5 ml TBS in order to obtain the desired Final concentration 10000; 5000; 1000; 200; 40; 2; 0.4; 0.05 μg/ml (culture medium maximal dilution=1/10).
(§9) 50 μl of bacterial suspension are added to the tube containing the compounds to be tested and incubated at 37° C.: the densitometric determination is made in comparison with Mc Farland standard solution 24 and 48 hours later.
(§10) After the incubation time the suspensions ape gently agitated; 50 μl of each suspension are inoculated in tubes containing […] of TSB and incubated at 37° C.; the densitometric determination is made 48 hours later.
(§11) BMC is defined by comparison between the two densitometric evaluation.

[2] = system: St.epidermidis ATCC 14990; experiment: as above; assay type: cell-based; conditions: Table 2.b)4; test concentrations given in μg/ml
Description: as §5, §6, §7, §8, §9, §10, §11

C.albicans ATCC 10231 = experiment: as above; assay type: cell-based; conditions: Table 2.b)6; test concentrations given in μg/ml
Description: as §5, §6, §7, §8, §9, §10, §11

St.aureus ATCC 65380 = experiment: as above; assay type: cell-based; conditions: Table 2.b)2; test concentrations given in μg/ml
Description: as §5, §6, §7, §8, §9, §10, §11

Ps.aeruginosa ATCC 35422 = experiment: as above; assay type: cell-based; conditions: Table 2.b)1; test concentrations given in μg/ml
Description: as §5, §6, §7, §8, §9, §10, §11

[3] = Physical chemical characteristics: solubility in water and organic solvents
E. Coli ATCC.35218 = experiment: Antibacterial activity, diffusion method in agar-germs (2.a); assay type: cell-based
Description: as §1, §2, §3, §4

PS Maltophila ATCC.13637 = experiment: as above; assay type: cell-based
Description: as §1, §2, §3, §4

[4] = system: Pseudomonas Aeruginosa ATCC.35422; experiment: as above; assay type: cell-based
Description: as §1, §2, §3, §4

E.coli ATCC 35218 = experiment: microbe, parasite or virus in culture; assay type: cell-based; conditions: Table 2.b)3; test concentrations given in μg/ml
Description: as §5, §6, §7, §8, §9, §10, §11

[5] = system: Stafilococcus Aureus ATCC.65380; experiment: Antibacterial activity, diffusion method in agar-germs (2.a); assay type: cell-based; design: unit not given here
Description: as §1, §2, §3, §4

[6] = system: Streptococcus Fecalis ATCC.291212; experiment: as above; assay type: cell-based; design: unit not given here
Description: as §1, §2, §3, §4

[7] = system: Stafilococcus Epidermidis ATCC.14990; experiment: as above; assay type: cell-based; design: unit not given here
Description: as §1, §2, §3, §4

[8] = system: Candida Albicans ATCC.10231; experiment: as above; assay type: cell-based; design: unit not given here
Description: as §1, §2, §3, §4

[9] = system: Aspergillus Niger ATCC 16404; experiment: as above; assay type: cell-based; design: unit not given here
Description: as §1, §2, §3, §4

PS Cepacia ATCC.25416 = experiment: as above; assay type: cell-based; design: unit not given here
Description: as §1, §2, §3, §4

3T3 fibroblasts = experiment: Cellular proliferation of 3T3 fibroblasts, neutral red colorimetry (1.1a); assay type: cell-based, Mice
Description: Experiments on 3T3 fibroblasts
Mice 3T3 fibroblasts cultures sown at a 40.000/ml concentration on plates having 6 wells in a DMEM culture medium enriched with 10% calf serum are used. After 24 hours culture, the 90 prepared wells are divided in order to allow the analyses of the compounds of the invention, every compound to be tested being used respectively at a concentration of 0.1, 1 and 10 μg/ml by subsequent evaluations after 48 and 72 hours of incubation.
Hexadecyltrimethylammoniun (ETA) traumatare: solubilized in water and brought to the desired final concentrations of 0.1. 1 and 10 μg/ml by progressive dilutions;
Ethanolamine traumatate: solubilized in water and brought to the final concentrations of 0.1, 1 and 10 μg/ml by progressive dilutions;
Traumatic acid: neutralized with sodium hydroxyde and solubilized in water, then brought to the final concentrations of 0.1, 1 and 10 μg/ml by progressive dilutions with the culture medium.
The compounds are added to the cells after 24 hours culture. The cells number is measured by colorimetry with the neutral red intravital stain after 24, 48, 72 hours of incubation.

Substance: benzylmethylhexadecylammonium trans-traumatate
- antibacterial and bacteriostatic activity profile [1]: antibacterial and bacteriostatic activity profile comparable to that of the comparison products
- MINIMAL BACTERIAL CONCENTRATION (B.subtilis ATCC 6633): 1,000.00
- MINIMAL BACTERIAL CONCENTRATION [2]: 2.00
- MINIMAL BACTERIAL CONCENTRATION (C.albicans ATCC 10231): 2.00
- MINIMAL BACTERIAL CONCENTRATION (St.aureus ATCC 65380): 1,000.00
- MINIMAL BACTERIAL CONCENTRATION (Ps.aeruginosa ATCC 35422): 10,000.00
- organic solvent solubility ([3]; in ethanol): > 20 mg/mL
- solubility in water ([3]; water): > 10 mg/mL
- bacterial diffusion halo (E. Coli ATCC.35218; sol. 0.1%): n.h.
- bacterial diffusion halo (E. Coli ATCC.35218; sol. 0.5%): n.h.
- bacterial diffusion halo (E. Coli ATCC.35218; sol. 1%): 13
- bacterial diffusion halo (PS Maltophila ATCC.13637; sol. 0.1%): n.h.
- bacterial diffusion halo (PS Maltophila ATCC.13637; sol. 0.5%): n.h.
- bacterial diffusion halo (PS Maltophila ATCC.13637; sol. 1%): 15
- bacterial diffusion halo ([4]; sol. 0.1%): n.h.
- bacterial diffusion halo ([4]; sol. 0.5%): 12
- bacterial diffusion halo ([4]; sol. 1%): 14
- MINIMAL BACTERIAL CONCENTRATION (E.coli ATCC 35218): 200.00
- bacterial diffusion halo ([5]; sol. 0.1%): 17
- bacterial diffusion halo ([5]; sol. 0.5%): 22
- bacterial diffusion halo ([5]; sol. 1%): 22
- bacterial diffusion halo ([6]; sol. 0.1%): 12
- bacterial diffusion halo ([6]; sol. 0.5%): 14
- bacterial diffusion halo ([6]; sol. 1%): 15
- bacterial diffusion halo ([7]; sol. 0.1%): 15
- bacterial diffusion halo ([7]; sol. 0.5%): 17
- bacterial diffusion halo ([7]; sol. 1%): 19
- bacterial diffusion halo ([8]; sol. 0.1%): 13
- bacterial diffusion halo ([8]; sol. 0.5%): 15
- bacterial diffusion halo ([8]; sol. 1%): 16
- bacterial diffusion halo ([9]; sol. 0.1%): 12
- bacterial diffusion halo ([9]; sol. 0.5%): 16
- bacterial diffusion halo ([9]; sol. 1%): 19
- bacterial diffusion halo (PS Cepacia ATCC.25416; sol. 0.1%): 12
- bacterial diffusion halo (PS Cepacia ATCC.25416; sol. 0.5%): 15
- bacterial diffusion halo (PS Cepacia ATCC.25416; sol. 1%): 15

Substance: hexadecyltrimethylammonium trans-traumatate [Hexadecyltrimethyl Ammonium Traumatate]
- antibacterial and bacteriostatic activity profile [1]: antibacterial and bacteriostatic activity profile comparable to that of the comparison products
- MINIMAL BACTERIAL CONCENTRATION (B.subtilis ATCC 6633): 2.00
- MINIMAL BACTERIAL CONCENTRATION [2]: 8.00
- MINIMAL BACTERIAL CONCENTRATION (C.albicans ATCC 10231): 2.00
- MINIMAL BACTERIAL CONCENTRATION (St.aureus ATCC 65380): 1,000.00
- MINIMAL BACTERIAL CONCENTRATION (Ps.aeruginosa ATCC 35422): > 10,000
- bacterial diffusion halo (E. Coli ATCC.35218; sol. 0.1%): n.h.
- bacterial diffusion halo (E. Coli ATCC.35218; sol. 0.5%): 13
- bacterial diffusion halo (E. Coli ATCC.35218; sol. 1%): 15
- bacterial diffusion halo (PS Maltophila ATCC.13637; sol. 0.1%): n.h.
- bacterial diffusion halo (PS Maltophila ATCC.13637; sol. 0.5%): 15
- bacterial diffusion halo (PS Maltophila ATCC.13637; sol. 1%): 21
- bacterial diffusion halo ([4]; sol. 0.1%): n.h.
- bacterial diffusion halo ([4]; sol. 0.5%): n.h.
- bacterial diffusion halo ([4]; sol. 1%): n.h.
- effect on cells proliferation (3T3 fibroblasts; 0.1 μg/ml, in words): able to affect cells proliferation according to a not statistically significant trend
- effect on cellular proliferation (3T3 fibroblasts; 1 μg/ml, in words, ETA salt > ethanolamine salt = traumatic acid): able to increase cellular proliferation
- cells numeration (colorimetric, neutral red) (3T3 fibroblasts; 24 hours of incubation, 0.1 (head: μg/ml), control 0.579 ± 0.021): 0.575 ± 0.041
- cells numeration (colorimetric, neutral red) (3T3 fibroblasts; 24 hours of incubation, 1.0 (head: μg/ml), control 0.579 ± 0.021): 0.619 ± 0.033
- cells numeration (colorimetric, neutral red) (3T3 fibroblasts; 24 hours of incubation, 10.0 (head: μg/ml), control 0.579 ± 0.021): 0.491 ± 0.021
- cells numeration (colorimetric, neutral red) (3T3 fibroblasts; 48 hours of incubation, 0.1 (head: μg/ml), control 1.334 ± 0.050): 1.553 ± 0.061
- cells numeration (colorimetric, neutral red) (3T3 fibroblasts; 48 hours of incubation, 1.0 (head: μg/ml), control 1.334 ± 0.050): 1.501 ± 0.081
- cells numeration (colorimetric, neutral red) (3T3 fibroblasts; 48 hours of incubation, 10.0 (head: μg/ml), control 1.334 ± 0.050, ** p < 0.01 significant reduction): 0.842 ± 0.078
- cells numeration (colorimetric, neutral red) (3T3 fibroblasts; 72 hours of incubation, 0.1 (head: μg/ml), control 2.360 ± 0.125): 2.501 ± 0.131
- cells numeration (colorimetric, neutral red) (3T3 fibroblasts; 72 hours of incubation, 1.0 (head: μg/ml), control 2.360 ± 0.125): 2.503 ± 0.100
- cells numeration (colorimetric, neutral red) (3T3 fibroblasts; 72 hours of incubation, 10.0 (head: μg/ml), control 2.360 ± 0.125, ** p < 0.01 significant reduction): 1.385 ± 1.63
- time necessary for the cells to reach the confluence (3T3 fibroblasts; side control experiment, ETA and ethanolamine salts > traumatic acid): reduce the time normally necessary for the cells to reach the confluence
- MINIMAL BACTERIAL CONCENTRATION (E.coli ATCC 35218): 200.00
- bacterial diffusion halo ([5]; sol. 0.1%): 21
- bacterial diffusion halo ([5]; sol. 0.5%): 24
- bacterial diffusion halo ([5]; sol. 1%): 24
- bacterial diffusion halo ([6]; sol. 0.1%): 20
- bacterial diffusion halo ([6]; sol. 0.5%): 22
- bacterial diffusion halo ([6]; sol. 1%): 22
- bacterial diffusion halo ([7]; sol. 0.1%): 20
- bacterial diffusion halo ([7]; sol. 0.5%): 22
- bacterial diffusion halo ([7]; sol. 1%): 22
- bacterial diffusion halo ([8]; sol. 0.1%): 19
- bacterial diffusion halo ([8]; sol. 0.5%): 24
- bacterial diffusion halo ([8]; sol. 1%): 25
- bacterial diffusion halo ([9]; sol. 0.1%): 19
- bacterial diffusion halo ([9]; sol. 0.5%): 22
- bacterial diffusion halo ([9]; sol. 1%): 22
- bacterial diffusion halo (PS Cepacia ATCC.25416; sol. 0.1%): 18
- bacterial diffusion halo (PS Cepacia ATCC.25416; sol. 0.5%): 19
- bacterial diffusion halo (PS Cepacia ATCC.25416; sol. 1%): 22
